# From patent US11229618B2 (Amarin Pharmaceuticals Ireland Limited, priority 2012, dated 2022)
# Assay: AAMI 6-week study: essential fatty acid parameters in RBC (gas chromatography)
# Format: in vivo, human
# Conditions: for AA RBC Mean change from Baseline / DHA RBC Mean change from Baseline / AA RBC 1 or 2 g versus 4 g LS Mean / DHA RBC 1 or 2 g versus 4 g LS Mean: AAMI; for AA RBC Mean change from Baseline / DHA RBC Mean change from Baseline: mean (SD); for DGLA 1 or 2 g versus 4 g, LS Mean / DPAn-3 1 or 2 g versus 4 g, LS Mean / EPA/AA 1 or 2 g versus 4 g, LS Mean / DGLA Mean change from Baseline, Mean (SD) / DPAn-3 Mean change from Baseline, Mean (SD) / EPA/AA Mean change from Baseline, Mean (SD) / DGLA Baseline Mean (SD) / DPAn-3 Baseline Mean (SD) / EPA/AA Baseline Mean (SD): RBC
# Experimental: A single-center, 6-week, double-blind, randomizes, parallel-group, placebo-controlled, dose-ranging pilot study was performed to evaluate the efficacy, tolerability, and safety of >96% ethyl-EPA in subjects with subjective and objective memory impairment according to generally accepted criteria for Age-Associated Memory Impairment (“AAMI”). The primary objective of the study was to determine the effect of >96% ethyl-EPA 1 g, 2 g, and 4 g daily, compared to placebo, on cognitive performance in subjects with AAMI.
# Ninety-four subjects were randomized into one of six groups: 1 g E-EPA daily (n=23), 2 g E-EPA daily (n=24), 4 g E-EPA daily (n=24), 1 g placebo daily (n=7), 2 g placebo daily (n=8), and 4 g placebo daily (n=8). E-EPA was provided as 500 mg soft gel capsules containing>96% E-EPA and 0.2% dl-α-tocopherol as an antioxidant. Placebo capsules contained 467 mg of liquid paraffin and 0.2% dl-α-tocopherol. Ninety-one subjects completed the study. Two subjects in the 2 g E-EPA group and one subject in the 2 g placebo group discontinued the study.
# Blood samples (10 mL) were collected at Visit 1 (screening) and at Visits 4, 5 and 6. Analysis was performed by MSR Lipid Analysis, Scottish Crop Research Institute, Dundee, UK. The screening sample acted as baseline for the EFA measurements. Lipid was extracted from plasma, serum and RBC suspensions and converted into fatty acid methyl esters which were analyzed by gas chromatography to give fatty acid profiles as micrograms fatty acid per gram of sample (μgFA/g) and normalized area percent.
# RBC and plasma EFA data were collected at baseline, Day 14, 28 and 42 and summarized by visit for each treatment group. Change from baseline and percent change from baseline were also summarized. ANCOVA comparison of ethyl-EPA dose groups and ethyl-EPA versus placebo was performed.
# [1] = Ethyl-EPA 1 g versus 4 g, p-value <0.001
smiles,measurement,setting,value
"CC/C=C\C/C=C\C/C=C\C/C=C\C/C=C\CCCC(=O)OCC [IPE, all-cis eicosa-5,8,11,14,17-pentaenoic acid ethyl ester]",AA RBC Mean change from Baseline,"1 g daily, Day 14",−8.1 (21.95) μg/g
same,DHA RBC Mean change from Baseline,"1 g daily, Day 14",−4.6 (9.76) μg/g
same,AA RBC Mean change from Baseline,"1 g daily, Day 28",−17.0 (20.69) μg/g
same,DHA RBC Mean change from Baseline,"1 g daily, Day 28",−6.4 (11.57) μg/g
same,AA RBC Mean change from Baseline,"1 g daily, Day 42",−14.2 (27.69) μg/g
same,DHA RBC Mean change from Baseline,"1 g daily, Day 42",−7.0 (12.20) μg/g
same,AA RBC 1 or 2 g versus 4 g LS Mean,1 g versus 4 g,8.4 µg/g
same,DHA RBC 1 or 2 g versus 4 g LS Mean,1 g versus 4 g,1.0 µg/g
same,AA RBC Mean change from Baseline,"2 g daily, Day 14",−3.1 (25.84) μg/g
same,DHA RBC Mean change from Baseline,"2 g daily, Day 14",−2.0 (9.46) μg/g
same,AA RBC Mean change from Baseline,"2 g daily, Day 28",−14.1 (26.89) μg/g
same,DHA RBC Mean change from Baseline,"2 g daily, Day 28",−6.2 (9.34) μg/g
same,AA RBC Mean change from Baseline,"2 g daily, Day 42",−18.8 (25.62) μg/g
same,DHA RBC Mean change from Baseline,"2 g daily, Day 42",−6.3 (9.42) μg/g
same,AA RBC 1 or 2 g versus 4 g LS Mean,2 g versus 4 g,9.8 µg/g
same,DHA RBC 1 or 2 g versus 4 g LS Mean,2 g versus 4 g,1.0 µg/g
same,AA RBC Mean change from Baseline,"4 g daily, Day 14",−15.7 (26.76) μg/g
same,DHA RBC Mean change from Baseline,"4 g daily, Day 14",−6.9 (9.13) μg/g
same,AA RBC Mean change from Baseline,"4 g daily, Day 28",−22.8 (29.56) μg/g
same,DHA RBC Mean change from Baseline,"4 g daily, Day 28",−8.7 (11.63) μg/g
same,AA RBC Mean change from Baseline,"4 g daily, Day 42",−34.4 (31.44) μg/g
same,DHA RBC Mean change from Baseline,"4 g daily, Day 42",−13.8 (13.76) μg/g
same,"DGLA 1 or 2 g versus 4 g, LS Mean","Ethyl-EPA 1 g versus 4 g, p-value 0.027",1.5 µg/g
same,"DPAn-3 1 or 2 g versus 4 g, LS Mean",[1],-6.2 µg/g
same,"EPA/AA 1 or 2 g versus 4 g, LS Mean",[1],−0.18
same,"DGLA Mean change from Baseline, Mean (SD)","Ethyl-EPA 1 g, Day 14",−2.7 (3.82) μg/g
same,"DPAn-3 Mean change from Baseline, Mean (SD)","Ethyl-EPA 1 g, Day 14",0.9 (5.03) μg/g
same,"EPA/AA Mean change from Baseline, Mean (SD)","Ethyl-EPA 1 g, Day 14",0.1 (0.04)
same,"DGLA Mean change from Baseline, Mean (SD)","Ethyl-EPA 1 g, Day 28",−3.8 (3.31) μg/g
same,"DPAn-3 Mean change from Baseline, Mean (SD)","Ethyl-EPA 1 g, Day 28",3.3 (5.42) μg/g
same,"EPA/AA Mean change from Baseline, Mean (SD)","Ethyl-EPA 1 g, Day 28",0.1 (0.05)
same,"DGLA Mean change from Baseline, Mean (SD)","Ethyl-EPA 1 g, Day 42",−3.5 (4.51) μg/g
same,"DPAn-3 Mean change from Baseline, Mean (SD)","Ethyl-EPA 1 g, Day 42",6.5 (6.19) μg/g
same,"EPA/AA Mean change from Baseline, Mean (SD)","Ethyl-EPA 1 g, Day 42",0.1 (0.06)
same,DGLA Baseline Mean (SD),Ethyl-EPA 1 g,23.0 (5.19) μg/g
same,DPAn-3 Baseline Mean (SD),Ethyl-EPA 1 g,34.1 (5.43) μg/g
same,EPA/AA Baseline Mean (SD),Ethyl-EPA 1 g,0.1 (0.07)
same,"DPAn-3 1 or 2 g versus 4 g, LS Mean","Ethyl-EPA 2 g versus 4 g, p-value 0.002",-2.5 µg/g
same,"DGLA 1 or 2 g versus 4 g, LS Mean","Ethyl-EPA 2 g versus 4 g, p-value 0.032",1.5 µg/g
same,"EPA/AA 1 or 2 g versus 4 g, LS Mean","Ethyl-EPA 2 g versus 4 g, p-value <0.001",−0.11
same,"DGLA Mean change from Baseline, Mean (SD)","Ethyl-EPA 2 g, Day 14",−2.6 (3.54) μg/g
same,"DPAn-3 Mean change from Baseline, Mean (SD)","Ethyl-EPA 2 g, Day 14",5.6 (6.28) μg/g
same,"EPA/AA Mean change from Baseline, Mean (SD)","Ethyl-EPA 2 g, Day 14",0.2 (0.04)
same,"DGLA Mean change from Baseline, Mean (SD)","Ethyl-EPA 2 g, Day 28",−4.5 (3.58) μg/g
same,"DPAn-3 Mean change from Baseline, Mean (SD)","Ethyl-EPA 2 g, Day 28",9.4 (6.74) μg/g
same,"EPA/AA Mean change from Baseline, Mean (SD)","Ethyl-EPA 2 g, Day 28",0.02 (0.06)
same,"DGLA Mean change from Baseline, Mean (SD)","Ethyl-EPA 2 g, Day 42",−5.3 (3.65) μg/g
same,"DPAn-3 Mean change from Baseline, Mean (SD)","Ethyl-EPA 2 g, Day 42",13.2 (7.23) μg/g
same,"EPA/AA Mean change from Baseline, Mean (SD)","Ethyl-EPA 2 g, Day 42",0.3 (0.06)
same,DGLA Baseline Mean (SD),Ethyl-EPA 2 g,23.0 (5.76) μg/g
same,DPAn-3 Baseline Mean (SD),Ethyl-EPA 2 g,33.2 (4.51) μg/g
same,EPA/AA Baseline Mean (SD),Ethyl-EPA 2 g,0.1 (0.06)
same,"DGLA Mean change from Baseline, Mean (SD)","Ethyl-EPA 4 g, Day 14",−5.3 (4.10) μg/g
same,"DPAn-3 Mean change from Baseline, Mean (SD)","Ethyl-EPA 4 g, Day 14",5.4 (5.38) μg/g
same,"EPA/AA Mean change from Baseline, Mean (SD)","Ethyl-EPA 4 g, Day 14",0.3 (0.07)
same,"DGLA Mean change from Baseline, Mean (SD)","Ethyl-EPA 4 g, Day 28",−7.1 (4.63) μg/g
same,"DPAn-3 Mean change from Baseline, Mean (SD)","Ethyl-EPA 4 g, Day 28",12.4 (6.98) μg/g
same,"EPA/AA Mean change from Baseline, Mean (SD)","Ethyl-EPA 4 g, Day 28",0.4 (0.11)
same,"DGLA Mean change from Baseline, Mean (SD)","Ethyl-EPA 4 g, Day 42",−8.0 (4.98) μg/g
same,"DPAn-3 Mean change from Baseline, Mean (SD)","Ethyl-EPA 4 g, Day 42",16.2 (10.07) μg/g
same,"EPA/AA Mean change from Baseline, Mean (SD)","Ethyl-EPA 4 g, Day 42",0.4 (0.14)
same,DGLA Baseline Mean (SD),Ethyl-EPA 4 g,24.0 (5.77) μg/g
same,DPAn-3 Baseline Mean (SD),Ethyl-EPA 4 g,34.5 (4.34) μg/g
same,EPA/AA Baseline Mean (SD),Ethyl-EPA 4 g,0.1 (0.04)
